Test results as given in patent US10611778B2, “Fused bicyclic inhibitors of menin-MLL interaction” (Janssen Pharmaceutica NV, priority 2016, dated 2020).

Tests used:
[1] = molecular target: T1, Menin/MLL (terbium chelate-labeled menin, FITC-MBM1 peptide) (Homo sapiens, UniProt O00255, T541A); experiment: Menin/MLL homogenous time-resolved fluorescence (HTRF) assay; assay type: binding; conditions: averaged values over all measurements; read-out: Menin HTRF assay (IC50)
T1 construct: Menin (a.a. 1-610-6×his tag) was labeled with terbium cryptate as follows
T1 sequence (O00255 with tags, fused parts or gaps T541A): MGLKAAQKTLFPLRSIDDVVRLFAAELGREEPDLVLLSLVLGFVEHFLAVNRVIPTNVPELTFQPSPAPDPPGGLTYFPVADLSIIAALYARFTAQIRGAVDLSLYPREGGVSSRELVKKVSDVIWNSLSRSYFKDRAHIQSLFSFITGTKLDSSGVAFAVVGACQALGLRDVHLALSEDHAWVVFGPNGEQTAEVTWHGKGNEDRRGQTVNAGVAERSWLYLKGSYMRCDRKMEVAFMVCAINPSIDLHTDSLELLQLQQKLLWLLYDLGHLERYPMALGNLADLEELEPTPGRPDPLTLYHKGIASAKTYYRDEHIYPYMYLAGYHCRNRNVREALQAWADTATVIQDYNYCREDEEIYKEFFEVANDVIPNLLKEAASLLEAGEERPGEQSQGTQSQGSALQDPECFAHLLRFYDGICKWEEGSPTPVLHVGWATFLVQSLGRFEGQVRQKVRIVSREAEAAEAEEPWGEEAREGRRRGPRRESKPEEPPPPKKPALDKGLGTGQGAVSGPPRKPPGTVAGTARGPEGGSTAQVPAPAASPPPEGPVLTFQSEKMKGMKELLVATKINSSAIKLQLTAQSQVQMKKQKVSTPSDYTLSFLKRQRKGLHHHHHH
Outline: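 Compound preincubated 5 min with terbium-cryptate-labeled menin (aa 1-610, His-tagged; 100 pM final), then 75 nM FITC-MBM1 peptide added, 15 min at ambient temperature; 0.5% DMSO, Tris pH 7.5 buffer. HTRF ratio 520/490 nm; % inhibition vs saturating competitor, IC50 from 11-point three-fold titration from 31 μM.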

KG1 = experiment: Proliferation assay (spheroid assay) KG1 control cell line; assay type: cell-based; conditions: Homo sapiens, KG-1, averaged values over all measurements
Description: (§1) The anti-proliferative effect of menin/MLL protein/protein interaction inhibitor test compounds was assessed in human leukemia cell lines. The cell lines MV-4-11 and MOLM14 harbor MLL translocations and express the MLL fusion proteins MLL-AF4 and MLL-AF9, respectively, as well as the wildtype protein from the second allele. […] K562 and KG1 were used as a control cell lines containing two MLL wildtype alleles in order to exclude compounds that display general cytotoxic effects.
(§2) MV-4-11 and MOLM14 were cultured in RPMI-1640 (Sigma Aldrich) supplemented with 10% fetal bovine serum (HyClone), 2 mM L-glutamine (Sigma Aldrich) and 50 μg/ml gentamycin (Gibco). K562 were propagated in RPMI-1640 (Sigma Aldrich) supplemented with 20% fetal bovine serum (HyClone), 2 mM L-glutamine (Sigma Aldrich) and 50 μg/ml gentamycin (Gibco). KG1 were cultured in Iscove's MDM (Gibco) supplemented with 20% fetal bovine serum (HyClone), 2 mM L-glutamine (Sigma Aldrich) and 50 μg/ml gentamycin (Gibco).
(§3) In order to assess the anti-proliferative effects, 1,500 MV-4-11, 300 MOLM14, 750 K562 or 1,300 KG1 cells were seeded in 200 μl media per well in 96-well round bottom, ultra-low attachment plates (Costar, catalogue number 7007). Cell seeding numbers were chosen based on growth curves to ensure linear growth throughout the experiment. Test compounds were added at different concentrations and the DMSO content was normalized to 0.3%. Cells were incubated for 8 d at 37° C. and 5% CO2. Spheroid like growth was monitored in real-time by live-cell imaging (IncuCyteZOOM, Essenbio, 4× objective) acquiring one image every four hours for 8 d. Confluence (%) as a measure of spheroid size was determined using an integrated analysis tool.
(§4) In order to determine the cumulative effect of the test compounds over time, the area under the curve (AUC) in a plot of confluence against time was calculated. Confluence at the beginning of the experiment (t=0) was used as baseline for the AUC calculation.
(§5) Absolute IC50 values were calculated according to the following procedure: % Control=(AUC sample/AUC control)*100
(§6) AUC control=mean AUC of control values (cells without compound/DMSO as vehicle control)
(§7) A non-linear curve fit was applied using the least squares (ordinary) fit method to the plot of % control versus compound concentration. Based on this, the absolute IC50 value (half maximal inhibitory concentration of the test compound causing an anti-proliferative effect of 50% relative to the vehicle control) was calculated.

MV-4-11 = experiment: Proliferation assay (spheroid assay) MV-4-11; assay type: cell-based, human; conditions: Homo sapiens, MV4-11, MV-4-11; averaged values over all measurements; read-out: Spheroid assay MV-4-11 (IC50)
Outline: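 Cells were grown as spheroids in ultra-low attachment round-bottom wells with compound (0.3% DMSO) for 8 d at 37 °C, imaged every 4 h, with confluence as spheroid size. AUC of confluence versus time (t=0 baseline) was expressed as % of DMSO control, and absolute IC50 came from a least-squares nonlinear fit.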

MOLM14 = experiment: Proliferation assay (spheroid assay) MOLM14; assay type: cell-based, human; conditions: Homo sapiens, MOLM-14, MOLM14; averaged values over all measurements; read-out: Spheroid assay MOLM14 (IC50)
Description: as §1, §2, §3, §4, §5, §6, §7

[2] = molecular target: T2, Menin/MLL (menin, FITC-MBM1 peptide) (Homo sapiens, UniProt O00255, T541A); experiment: Menin/MLL fluorescence polarization (FP) assay; assay type: binding; conditions: averaged values over all measurements; read-out: Menin FP assay (IC50)
T2 construct: 6xHis (C)
T2 sequence (O00255 with tags, fused parts or gaps T541A): T1 sequence (O00255 with tags, fused parts or gaps T541A)
Description: Pharmacological Part 1) Menin/MLL Fluorescence Polarization Assay
To a non-surface binding, black 384-well microtiter plate was added 50 nL 160× test compound in DMSO and 4 μL 2× menin in assay buffer (40 mM Tris-HCl, pH 7.5, 50 mM NaCl, 1 mM DTT and 0.001% Tween 20). After incubation of test compound and menin for 10 min at ambient temperature, 4 μL 2×FITC-MBM1 peptide (FITC-β-alanine-SARWRFPARPGT-NH2) in assay buffer was added, the microtiter plate centrifuged at 1000 rpm for 1 min and the assay mixtures incubated for 15 min at ambient temperature. The relative amount of menin: FITC-MBM1 complex present in an assay mixture is determined by measuring the fluorescence polarization (FP) of the FITC label with a BMG Pherastar plate reader (ex. 485 nm/em. 520 nm) at ambient temperature. The final concentrations of reagents in the binding assay are 100 nM menin, 5 nM FITC-MBM1 peptide and 0.625% DMSO in assay buffer. Dose-response titrations of test compounds are conducted using an 11 point, three-fold serial dilution scheme, starting at 31 μM.
Compound potencies were determined by first calculating % inhibition at each compound concentration according to equation 1: % inhibition=((HC−LC)−(FP^compound−LC))/(HC−LC))*100 (Eqn 1)
Where LC and HC are the FP values of the assay in the presence or absence of a saturating concentration of a compound that competes with FITC-MBM1 for binding to menin, and FP^compound is the measured FP value in the presence of the test compound. HC and LC FP values represent an average of at least 16 replicates per plate.
Where Bottom and Top are the lower and upper asymptotes of the dose-response curve, respectively, IC50 is the concentration of compound that yields 50% inhibition of signal and h is the Hill coefficient.

| SMILES | IC50 [1] [nM] | IC50 (KG1) [nM] | IC50 (MV-4-11) [nM] | IC50 (MOLM14) [nM] | IC50 [2] [nM] |
| --- | --- | --- | --- | --- | --- |
| Cc1cncc(CN2CC[C@@H]3CN(c4ncnc5sc(CC(F)(F)F)cc45)C[C@@H]3C2)c1 (single isomer, unassigned) [Compound 39] | 165 | 2500 | 670 | – | – |
| FC(F)(F)Cc1cc2c(N3C[C@H]4CCN(CC5CCOC5)C[C@H]4C3)ncnc2s1 (single isomer, unassigned) [Compound 101] | 28 | > 15000 | 410 | – | – |
| FC(F)(F)Cc1cc2c(N3C[C@H]4CCN(Cc5cccnc5Cl)C[C@H]4C3)ncnc2s1 (single isomer, unassigned) [Compound 41] | 74 | 4500 | 840 | 1200 | – |
| FC(F)(F)Cc1cc2c(N3C[C@H]4CCN(Cc5ccc(Cl)nc5)C[C@H]4C3)ncnc2s1 (single isomer, unassigned) [Compound 42] | 21 | > 15000 | 470 | 1600 | – |
| COc1ncccc1CN1CC[C@@H]2CN(c3ncnc4sc(CC(F)(F)F)cc34)C[C@@H]2C1 (single isomer, unassigned) [Compound 44] | 87 | > 15000 | 2100 | – | – |
| Cn1cc(CN2CCC3CN(c4ncnc5sc(CC(F)(F)F)cc45)CC3C2)cn1 (centres unmarked) [Compound 71] | 70 | – | 840 | 6700 | 88 |
| FC(F)(F)Cc1cc2c(N3CC[C@H]4[C@H](CCN4Cc4ccc(Cl)nc4)C3)ncnc2s1 (single isomer, unassigned) [Compound 11] | 680 | – | > 15000 | > 15000 | 590 |
| FC(F)(F)Cc1cc2c(N3CC[C@H]4[C@H](CCN4Cc4ccccc4)C3)ncnc2s1 (single isomer, unassigned) [Compound 4] | 69 | – | 8300 | 12800 | 230 |
| FC(F)(F)Cc1cc2c(N3CC[C@@H]4[C@@H](CCN4Cc4ccccc4)C3)ncnc2s1 (single isomer, unassigned) [Compound 3] | 61 | – | 2000 | 3800 | 89 |
| FC(F)(F)Cc1cc2c(N3CC[C@@H]4[C@@H](CCN4Cc4ccc(Cl)nc4)C3)ncnc2s1 (single isomer, unassigned) [Compound 10] | 118 | – | 4400 | 2000 | 250 |
| Cn1cc(CN2CC3CN(c4ncnc5sc(CC(F)(F)F)cc45)CC3C2)cn1 (centres unmarked) [Compound 18] | 1130 | – | > 15000 | > 15000 | 520 |
| FC(F)(F)Cc1cc2c(N3C[C@H]4CCN(CC5CCCOC5)C[C@H]4C3)ncnc2s1 (single isomer, unassigned) [Compound 99] | 33 | > 15000 | 240 | – | – |
| Cc1nc(CN2CC[C@H]3CN(c4ncnc5sc(CC(F)(F)F)cc45)CC[C@H]32)cs1 (single isomer, unassigned) [Compound 12] | 860 | – | 2100 | 9200 | 430 |
| [CH3][Ge]([CH3])([CH3])[CH2]N1CCC2CN(c3ncnc4sc(CC(F)(F)F)cc34)CCC21 (centres unmarked) [Compound 15] | 120 | – | – | – | 130 |
| OCCn1cccc1CN1CCC2CN(c3ncnc4sc(CC(F)(F)F)cc34)CCC21 (centres unmarked) [Compound 23] | 366 | – | 1700 | 4300 | 220 |
| Cn1ccnc1CN1CCC2CN(c3ncnc4sc(CC(F)(F)F)cc34)CCC21 (centres unmarked) [Compound 19] | 4570 | – | – | – | 1770 |
| FC(F)(F)Cc1cc2c(N3C[C@H]4CCN(CC5CCCCO5)C[C@H]4C3)ncnc2s1 (single isomer, unassigned) [Compound 100] | 57 | > 15000 | 930 | – | – |
| Cn1cc(CN2CC[C@H]3CN(c4ncnc5sc(CC(F)(F)F)cc45)CC[C@H]32)cn1 (single isomer, unassigned) [Compound 9] | 106 | – | 3500 | 10300 | 98 |
| Cn1cc(CN2CC[C@@H]3CN(c4ncnc5sc(CC(F)(F)F)cc45)CC[C@@H]32)cn1 (single isomer, unassigned) [Compound 13] | – | – | 13700 | > 15000 | 520 |
| Cn1cc(CN2CC[C@H]3CN(c4ncnc5sc(CC(F)(F)F)cc45)C[C@H]32)cn1 [Compound 27B] | 8990 | – | – | – | 3650 |
| CC(C)(CO)CN1CC[C@@H]2CN(c3ncnc4sc(CC(F)(F)F)cc34)C[C@@H]2C1 (single isomer, unassigned) [Compound 58] | 63 | > 15000 | 990 | – | – |
| FC(F)(F)Cc1cc2c(N3CCC4C(CCN4Cc4cc[nH]n4)C3)ncnc2s1 (centres unmarked) [Compound 84] | 906 | – | – | – | 1020 |
| FC(F)(F)Cc1cc2c(N3C[C@H]4CN(Cc5ccccc5)[C@H]4C3)ncnc2s1 [Compound 33] | 2100 | – | – | – | 1190 |
| CC(C)CN1CC[C@H]2CN(c3ncnc4sc(CC(F)(F)F)cc34)C[C@H]21 (single isomer, unassigned) [Compound 28B] | 2490 | – | – | – | 1380 |
